Test results as given in patent US20100190832A1, “Mechanism-based inhibitors of transthyretin amyloidosis: studies with biphenyl ethers and structural templates” (NATIONAL INSTITUTE OF IMMUNOLOGY., priority 2008, published 2010).
Read-outs that look alike come from different tables or passages of the source.

Experiments:
[1] = biological target: T1, WT-TTR (Homo sapiens, UniProt P02766); assay: Stagnant acid-mediated TTR aggregation (fibril formation) assay, turbidity at 340 nm; type: biochemical
T1 construct: made in house
Outline: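 Inhibitor and WT TTR preincubated 1 h at 25° C, then diluted into 200 mM sodium acetate pH 4.4, 100 mM KCl, 1 mM EDTA and held 72 h at 37° C without stirring.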

[2] = biological target: T2, TTR (Homo sapiens, UniProt P02766); assay: Dissociation constant by fluorescence titration (Adair equation, two sites); type: binding; details: pH 4.4
T2 construct: made in house
Method: The experiments were conducted at 25° C. After 1 h, the samples were diluted with 0.5 mL of 200 mM sodium acetate buffer pH 4.4 containing 100 mM KCl and 1 mM EDTA, vortexed, and incubated at 37° C. for 72 h. […] The stoichiometry of the binding of the inhibitors was determined by HPLC as described by Green et al., N. S. Palaninathan, S, L, Sacchettini, J. e. […] Dissociation constant of binding of these compounds to TTR was determined by fluorescence titration, and data were fitted into the Adair equation for two bind mg.
Small aliquots of 1 mM ligands solutions were successively added to the […] in 100 mM sodium acetate buffer pH 4.4 at […] under constant stirring. After each addition sample was left for 2 min. […] Readings were corrected for buffer blank, dilution and inner filter effect. The inner filter effect was corrected by using the following equation,
From the titration data the dissociation constant was determined by fitting data in following Adair equation for two binding sites-

[3] = biological target: T2, TTR; assay: Time course (kinetics) of fibril formation, turbidity at 340 nm for 3 h; type: biochemical; details: TTR 7.2 μM, inhibitor 21.6 μM, 37° C., pH 4.4, 3 h
Method: Time Course of Fibril Formation. The kinetics of inhibition was studied by incubating […] TTR with […] of different inhibitors in 100 µl of 5 mM phosphate buffer pH 7.2 for 30 min in a 96 microwell plate. […] of 0.2 M sodium acetate buffer pH 4.4 containing 1 mM EDTA and 100 mM KCl was added. The difference in turbidity was assessed by measuring the change in absorbance at 340 nm on Tecan GEnios microplate reader using Magellan software. For kinetics, parameters were set for 30 cycles at 37° C. at the interval of 5 min each and 2 min orbital shaking (low speed) between cycles and 10 sec shaking (normal speed) before measurement. All experiments were performed in triplicates. Change in absorbance at 340 nm was plotted against time in the presence and absence of inhibitors initial rate of fibril formation was calculated from the slope by linear fitting of the data.
All experiments were performed three times in triplicates. Change in absorbance (mean of three different experiments) at 340 nm was plotted against time in the presence and absence of inhibitors. Initial rate of fibril form action was calculated from the value of the slope by linear fitting of the change in absorbance at 340 nm as a function of time.

[4] = biological target: T3, TTR tetramer (Homo sapiens, UniProt P02766); assay: Urea denaturation (tetramer dissociation, tryptophan fluorescence); type: biochemical; details: TTR 1.8 μM, inhibitor 5.4 μM (1:3), 6 M urea, 25° C., up to […]
T3 construct: made in house

IC50 ([1]; 50% reduction in fibril formation, TTR 7.2 μM, pH 4.4, read-out: IC50 ± SE): 2590 ± 140 nM
remaining activity at 50 µM ([1]; 72 h, biphenyl ether 50 μM, WT-TTR 7.2 μM, read-out: % FF at 50 μM): 0%
remaining activity at 7.2 µM ([1]; 72 h, pH 4.4, TTR 7.2 μM, inhibitor 7.2 μM (1:1), pH 4.4, 37° C., no inhibitor = 100%, read-out: % FF 1:1): 29%
remaining activity at 21.6 µM ([1]; 72 h, pH 4.4, TTR 7.2 μM, inhibitor 21.6 μM (1:3), pH 4.4, 37° C., no inhibitor = 100%, read-out: % FF 1:3): 13.3%
IC50 ([1]; TTR amyloid formation, 37° C., read-out: IC50): 470 to 3500 nM
IC50 ([1]; Table 3, WT-TTR 7.2 μM, read-out: IC50): 2590 nM
Kd ([2]; read-out: Dissociation Constant Kd1): 27 ± 8.03 nM
Kd ([2]; read-out: Dissociation Constant Kd2): 3 ± 0.78 nM
inhibition at 21.6 µM [3]: > 80%
protein dissociates (tetramer dissociation) [4]: 21%
SMILES: O=C(O)c1ccc(Oc2ccc(Cl)cc2Cl)c(O)c1 [Compound 7]
